In patent US9855248B2, “Polymorph of itraconazole with improved pharmaceutical properties” (The Chinese University of Hong Kong, priority 2016, dated 2018):
“Also recorded” adds a separate entry of the source.

What was measured:
[1] = type: physicochemical
Description: Solubilities of different polymorphs were determined by adding excess drug to 10 ml of 50% v/v aqueous ethanol in glass vials, followed by equilibration with occasional shaking at different temperatures (4° C., 10° C., 20° C., 25° C., 34° C., 40° C.) in a temperature-controlled incubator (Lovibond TC 135S, Tintometer GmbH, Dortmund, Germany) for 3 days (i.e., until equilibrium was reached). The solution was then filtered and the drug content was analyzed by UPLC (Agilent 1200 Infinity LC systems) using a UHPLC ZORBAX Eclipse Plus C18 column (2.1 mm×50 mm; 1.8 m). The mobile phase consisted of acetonitrile and 0.1% formic acid (60:40 v/v) eluted at 1 ml/min. Quantification was based on the peak area measurement by UV absorption at λ=260 nm. After the study, the residual solid in each glass vial was analyzed by DSC and XRPD to check for possible polymorphic transitions during the study. Solubility data were expressed in mole fraction as follows:
[formula] where n1 is the number of moles of solvent, and n2 is the number of moles of solute.
In addition to the enthalpy of fusion, equilibrium solubility and the related enthalpy of solution in a given solvent system can offer useful information on the bonding strength within the crystal lattice of a particular polymorph. […] According to the van't Hoff equation, the plot should be linear if the enthalpy of solution term in the equation is truly temperature-independent. […] The extrapolation of two linear plots yielded a transition temperature, Tr, of […] at the intersection point for the two polymorphs. The enthalpy, ΔHII→I, and entropy, ΔSII→I, of polymorphic transition from Form II to Form I were estimated to be −4470.8 J/mol and −5.7 J/mol·K from the slope of the log solubility ratio plot in FIG. 6B and from the relation, ΔSII→I=ΔHII→I/Tr (i.e., when ΔGII→I=0), respectively. The free energies of polymorphic transition, ΔGII→I, from Form II to Form I at 25° C. and 37° C., as defined by the equation, ΔGII→I=ΔHII→I−TΔSII→I, were calculated to be −2771 J/mol and −2703 J/mol, respectively. The solubility of Form II was about 2-3 fold higher than that of Form I in the temperature range studied.

[2] = Powder dissolution study in 50% v/v aqueous ethanol; type: physicochemical; details: 25° C.; for solid form of undissolved solid at end of dissolution study (DSC and XRPD): 3-day dissolution study; for initial dissolution rate (in words): initial time period
Description: As an alternative means to compare the solubilities of the three ITZ polymorphs, the dissolution-time profiles of these crystal forms were determined in the same solvent system. According to the Noyes Whitney equation, the dissolution rate per unit surface area of a drug solid in contact with the dissolution medium is directly proportional to its solubility under sink conditions at a constant temperature. Thus the amount of drug dissolved initially over a defined time period can provide an indirect measure of the drug solubility. […] The concentrations of Form I and Form II in dissolution media increased gradually with time and plateaued off after ˜10 h. The maximum drug concentration attained was 2-3 fold higher for Form II than for Form I, consistent with the equilibrium solubility data.
All powder samples for dissolution testing were first sieved through an 80 mesh-screen (180 μm), and only particles with sizes smaller than 180 m were used. An accurately weighed amount (20±0.2 mg) of each ITZ polymorph or ITZ amorphous powder (made by rapid melt quenching) was dispersed in 25 ml 50% v/v aqueous ethanol with continuous stirring at 100 rpm in a round bottom flask, equilibrated inside a temperature-controlled incubator (Lovibond TC 135S, Tintometer GmbH, Dortmund, Germany) at 25° C. At appropriate time intervals, a 400 μl aliquot of each solution was withdrawn, filtered through 0.22 m membrane filters, and diluted with a suitable amount of 50% v/v aqueous ethanol prior to UPLC analysis. Each sample withdrawn was replaced by the same volume of fresh dissolution medium. The method of drug content detection was the same as described in the preceding section. At the end of the dissolution study, the undissolved solid left in the medium was checked by DSC or XRPD for possible polymorphic transition.

[3] = Solid-state physical stability of Form III (annealing, ambient handling, grinding; XRPD); type: physicochemical
Description: X-ray powder diffraction (XRPD) data were collected using a powder X-ray diffractometer (Philips, Xpert PRO, The Netherlands) equipped with a Cu radiation source operating at 40 kV and […]. Sample was uniformly packed into a custom-made aluminum holder with a 2 mm depth and scanned from 20 of 3° to 400 at a rate of 4°/min with a step size of 0.017°.
FIGS. 2A, 2B and 2C show the XRPD patterns for the three different growth zones, respectively. […] The third zone, termed Form III, was characterized by signature peaks at approximately 11.9°, 16.7°, 17.4°, 18.7°, 19.1°, 20.0°, and 21.1°, indicative of a new crystal form, which has not been reported previously. […] The morphologies of Form I and II were similar and almost indistinguishable. Form III only existed in the bulk of recrystallized ITZ (FIG. 1C). All of the three forms grew as spherulites at temperatures below 110° C. (FIG. 1D). At temperatures above 110° C., Forms I and II grew as separate faceted crystals (FIGS. 1E and 1F), whereas Form III transformed to Form II. The latter was further substantiated by annealing Form III at 100° C. and 120° C.
Samples of ITZ polymorphs recrystallized from melt on glass coverslips were first examined by HSM. […] (FIGS. 3B and 3C). Further heating led to melting of Form II at 158° C. (FIG. 3D), and eventually melting of Form I at around 167° C. (FIG. 3E). To gain further insight into the thermal behaviors and melting properties of the different polymorphs, DSC analyses were conducted and the respective thermograms are presented in FIG. 4A. Form I melted at 165.1° C., which is in excellent agreement with the melting point of the commercial ITZ form (Form I). The melting point of Form II (155.7° C.) is the same as that described previously. The measured molar enthalpy of fusion, ΔH^f, of Form II was 60.6±1.7 kJ/mol, which is less than that (ΔH^f=68.6±1.5 kJ/mol) of Form I. The molar entropy of fusion, ΔS^f, of Form II (141±4 J/mol·K) was also less than that of Form I (ΔS^f=156±4 J/mol·K). […] At low scanning rate, e.g., 10° C./min, a small exothermic peak appeared at ˜120° C. (which possibly reflects the transition of Form III to Form II), followed by an endotherm at ˜156° C., corresponding to the melting of Form II. At higher heating rates, e.g., 40° C./min, the melting endotherm of Form III started to emerge at 119.4° C., followed by a relatively small endotherm at a higher temperature, which can be attributed to the melting of recrystallized Form II from the Form III melt. Due to the co-existence of Form III and/or its melt, this Form II was seen to melt at a lower temperature than its phase pure counterpart (m.p. ˜156° C.). […]

[4] = pH 7.4; cited from earlier work

molar enthalpy of solution [1] | maximum/peak drug concentration relative to that of Form I [2] | time at which concentration in dissolution medium plateaued off [2] [h] | Structure (SMILES) | solid form of undissolved solid at end of dissolution study (DSC and XRPD) [2] | initial dissolution rate (in words) [2] | other results
51.3 (±2.9) kJ/mol | 2-3 fold | ~10 | CCC(C)n1ncn(-c2ccc(N3CCN(c4ccc(OC[C@H]5CO[C@](Cn6cncn6)(c6ccc(Cl)cc6Cl)O5)cc4)CC3)cc2)c1=O (mixture of isomers) [Form II, itraconazole] | maintained their original crystal structures; also recorded: remained unchanged |  | enthalpy, ΔHII→I, of polymorphic transition from Form II to Form I [1]: -1.0685 kcal/mol; entropy, ΔSII→I, of polymorphic transition from Form II to Form I [1]: −5.7 J/mol·K; transition temperature, Tr, of Form I and Form II [1]: 497.8 °C; solubility relative to that of Form I ([1]; 3 days): 2-3 fold
 | about 7 fold |  | CCC(C)n1ncn(-c2ccc(N3CCN(c4ccc(OC[C@H]5CO[C@](Cn6cncn6)(c6ccc(Cl)cc6Cl)O5)cc4)CC3)cc2)c1=O (mixture of isomers) [Form III, itraconazole] | converted to Form I | dissolved much more rapidly than the other two forms | time of peak drug concentration [2]: ~15 h; phase stability on annealing (XRPD) ([3]; 100° C. for 10 hours): no such phase transition; phase stability on annealing (XRPD) ([3]; 120° C. for 10 hours): conversion to Form II; crystal structure after grinding (XRPD) ([3]; grinding with pestle and mortar): remained unchanged in crystal structure; physical stability at ambient conditions ([3]; scraping from glass coverslip for XRPD analysis): stable at ambient conditions
 |  |  | CCC(C)n1ncn(-c2ccc(N3CCN(c4ccc(OC[C@H]5CO[C@](Cn6cncn6)(c6ccc(Cl)cc6Cl)O5)cc4)CC3)cc2)c1=O (relative stereo) [ITZ, (2R,4S)-rel-1-(Butan-2-yl)-4-{4-[4-(4-{[(2R,4S)-2-(2,4-dichlorophenyl)-2-(1H-1,2,4-triazol-1-ylmethyl)-1,3-dioxolan-4-yl]methoxy}phenyl)piperazin-1-yl]phenyl}-4,5-dihydro-1H-1,2,4-triazol-5-one] |  |  | water-solubility [4]: 1 ng/mL
 |  |  | CCC(C)n1ncn(-c2ccc(N3CCN(c4ccc(OC[C@H]5CO[C@](Cn6cncn6)(c6ccc(Cl)cc6Cl)O5)cc4)CC3)cc2)c1=O (mixture of isomers) [amorphous form, itraconazole] | converted to Form I | increased most rapidly | solid form of undissolved solid at end of dissolution study (DSC and XRPD) ([2]; listed as amorphous material): converted to Form I; dissolved drug concentration level after initial drop ([2]; after 50 h): equivalent to the equilibrium solubility of Form I
55.8 (±2.8) kJ/mol |  | ~10 | CCC(C)n1ncn(-c2ccc(N3CCN(c4ccc(OC[C@H]5CO[C@](Cn6cncn6)(c6ccc(Cl)cc6Cl)O5)cc4)CC3)cc2)c1=O (mixture of isomers) [Form I, itraconazole] | maintained their original crystal structures; also recorded: remained unchanged |  | 
